Assay results as given in patent US8268848B2, “Cyclopropane compound” (Eisai R&D Management Co., Ltd., priority 2010, dated 2012).
Like-named read-outs stand apart in the source and are kept apart here.

Experiments:
OX1 = target: T1, OX1 (Homo sapiens, UniProt O43613); assay: Measurement of orexin receptor-binding ability ([125I]-OX-A, cell membranes, OX1); set-up: expressed in transfected cells; host or cells: CHO cells (membrane preparation)
T1 sequence (O43613 1-425): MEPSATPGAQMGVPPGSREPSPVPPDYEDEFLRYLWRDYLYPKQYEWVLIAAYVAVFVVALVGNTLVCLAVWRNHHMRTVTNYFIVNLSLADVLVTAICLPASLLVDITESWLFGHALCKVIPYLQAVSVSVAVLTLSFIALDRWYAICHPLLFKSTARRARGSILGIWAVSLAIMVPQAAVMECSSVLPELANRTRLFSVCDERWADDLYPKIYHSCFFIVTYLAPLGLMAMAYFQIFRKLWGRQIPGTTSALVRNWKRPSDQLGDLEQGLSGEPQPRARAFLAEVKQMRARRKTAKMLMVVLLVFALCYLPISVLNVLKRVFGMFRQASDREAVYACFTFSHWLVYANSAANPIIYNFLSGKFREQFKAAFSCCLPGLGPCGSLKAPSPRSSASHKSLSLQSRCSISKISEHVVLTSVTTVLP
Experimental: 1. Measurement of Orexin Receptor-Binding Ability
The assay was carried out using a 96-well Wheat Germ Agglutinin Flash Plate (PerkinElmer). The volume in a single assay well was 100 ul, and the composition of the reaction solution was as follows:
25 mM HEPES (pH 7.5), 1 mM CaCl2, 4.5 mM MgCl2, 0.5% BSA (bovine serum albumin), 0.1% sodium azide, 0.05% Tween-20, and 0.2% DMSO.
Cell membranes were prepared from recombinant CHO cells that expressed OX2 or OX1. The cell membranes were used in an amount of 5 μg protein/assay. […] Finally, the radioactivity of each well was measured using a scintillation counter (TopCount, PerkinElmer).

OX2 = target: T2, OX2 (Homo sapiens, UniProt O43614); assay: Measurement of orexin receptor-binding ability ([125I]-OX-A, cell membranes, OX2); set-up: expressed in transfected cells; host or cells: CHO cells (membrane preparation); conditions: membranes of recombinant CHO cells expressing OX2, 0.2 nM [125I]-OX-A
T2 sequence (O43614 1-444): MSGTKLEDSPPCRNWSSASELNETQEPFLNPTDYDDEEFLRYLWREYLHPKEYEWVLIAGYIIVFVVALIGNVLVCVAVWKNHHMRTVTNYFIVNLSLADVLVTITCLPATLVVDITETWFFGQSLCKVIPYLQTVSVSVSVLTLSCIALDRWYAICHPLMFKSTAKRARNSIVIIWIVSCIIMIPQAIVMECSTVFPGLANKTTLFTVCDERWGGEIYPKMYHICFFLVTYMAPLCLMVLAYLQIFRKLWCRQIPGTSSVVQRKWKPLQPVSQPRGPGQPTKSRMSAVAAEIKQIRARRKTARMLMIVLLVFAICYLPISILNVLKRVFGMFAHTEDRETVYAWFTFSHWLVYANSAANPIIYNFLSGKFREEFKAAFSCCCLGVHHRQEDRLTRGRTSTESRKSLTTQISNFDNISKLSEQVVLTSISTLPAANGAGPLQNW

[1] = membranes of recombinant CHO cells expressing OX1, 0.2 nM [125I]-OX-A, read-out: OX1 (IC50)

Compound | IC50 (OX1) [nM] | IC50 (OX2; OX2 (IC50) nM) [nM] | IC50 (OX1; [1]) [nM] | IC50 (OX2; read-out: OX2 (IC50)) [nM]
COCc1nc(C)ncc1OC[C@@]1(c2cccc(F)c2)C[C@H]1C(=O)Nc1ccc(C(F)(F)F)cn1 [Example 201, (1R,2S)-2-(3-fluorophenyl)-2-{[(4-methoxymethyl-2-methylpyrimidin-5-yl)oxy]methyl}-N-[5-(trifluoromethyl)pyridin-2-yl]cyclopropanecarboxamide] | 5 | 4 | – | –
COCc1ccnc(NC(=O)[C@@H]2C[C@@]2(COc2cnc(C)nc2C)c2ccccc2)c1 [Example 14] | – | – | 302 | 16
COCc1nc(C)ncc1OC[C@@]1(c2cccc(F)c2)C[C@H]1C(=O)Nc1ccc(Cl)cn1 [Example 198, (1R,2S)-N-(5-chloropyridin-2-yl)-2-(3-fluorophenyl)-2-{[(4-methoxymethyl-2-methylpyrimidin-5-yl)oxy]methyl}cyclopropanecarboxamide] | 5 | 4 | – | –
Cc1ncc(OC[C@@]2(c3ccccc3)C[C@H]2C(=O)Nc2ccc3c(c2)NC(=O)CO3)c(C)n1 [Example 23] | – | – | 1700 | 67
Cc1ccc(NC(=O)[C@@H]2C[C@@]2(COc2cnc(C)nc2C)c2cccc(F)c2)nc1 [Example 278] | 76 | 10 | – | –
COCc1nc(C)ncc1OC[C@@]1(c2cccc(F)c2)C[C@H]1C(=O)Nc1ccc(F)c(F)c1 [Example 194, (1R,2S)-N-(3,4-difluorophenyl)-2-(3-fluorophenyl)-2-{[(4-methoxymethyl-2-methylpyrimidin-5-yl)oxy]methyl}cyclopropanecarboxamide] | – | – | 7 | 3
Cc1ncc(OCC2(c3cccc(C(F)(F)F)c3)CC2C(=O)Nc2ccc(C#N)cn2)c(C)n1 (stereo not drawn) [Example 264] | – | – | 792 | 23
Cc1ncc(OC[C@@]2(c3ccccc3)C[C@H]2C(=O)Nc2cc3ccccc3cn2)c(C)n1 [Example 52] | – | – | 37 | 28
Cc1ncc(OC[C@@]2(c3ccccc3)C[C@H]2C(=O)Nc2cc(C(F)F)ccn2)c(C)n1 [Example 15] | 213 | 41 | – | –
Cc1ncc(OC[C@@]2(c3cc(F)cc(F)c3)C[C@H]2C(=O)Nc2ccc(Cl)cn2)c(C)n1 [Example 132, (1R,2S)-N-(5-chloropyridin-2-yl)-2-(3,5-difluorophenyl)-2-{[(2,4-dimethylpyrimidin-5-yl)oxy]methyl}cyclopropanecarboxamide] | 18 | 4 | – | –
O=C(Nc1ccc(F)cn1)[C@@H]1C[C@@]1(COc1c[nH]c(=O)nc1C(F)(F)F)c1cc(F)cc(F)c1 [Example 291, (1R,2S)-2-(3,5-difluorophenyl)-N-(5-fluoropyridin-2-yl)-2-{[(2-oxo-4-trifluoromethyl-1,2-dihydropyrimidin-5-yl)oxy]methyl}cyclopropanecarboxamide] | – | – | > 200 | 49
COc1ccc(C2(COc3cnc(C)nc3C)CC2C(=O)Nc2ccc(F)cn2)cc1 (stereo not drawn) [Example 181] | 118 | 100 | – | –
Cc1ncc(NC[C@@]2(c3cccc(F)c3)C[C@H]2C(=O)Nc2ccc(F)cn2)c(C(F)(F)F)n1 [Example 302, (1R,2S)-2-(3-fluorophenyl)-N-(5-fluoropyridin-2-yl)-2-[N-(2-methyl-4-trifluoromethylpyrimidin-5-yl)aminomethyl]cyclopropanecarboxamide] | – | – | 8 | 3
COc1ccccc1C1(COc2cnc(C)nc2C)CC1C(=O)Nc1cccnc1 (stereo not drawn) [Example 126] | – | – | 100 | 107
Cc1ncc(OCC2(c3ccc(Cl)cc3)CC2C(=O)Nc2ccc(Cl)cn2)c(C)n1 (stereo not drawn) [Example 158] | – | – | 180 | 27
COCc1nc(C)ncc1OC[C@@]1(c2cc(F)cc(F)c2)C[C@H]1C(=O)Nc1ccccn1 [Example 218, (1R,2S)-2-(3,5-difluorophenyl)-2-{[(4-methoxymethyl-2-methylpyrimidin-5-yl)oxy]methyl}-N-(pyridin-2-yl)cyclopropanecarboxamide] | – | – | 10 | 3
Cc1ncc(OC[C@@]2(c3cccc(F)c3)C[C@H]2C(=O)Nc2ccc(I)cn2)c(C)n1 [Example 280] | 24 | 21 | – | –
CCc1nc(C)ncc1OC[C@@]1(c2cccc(F)c2)C[C@H]1C(=O)Nc1cc(C)c(F)cn1 [Example 244, (1R,2S)-2-{[(4-ethyl-2-methylpyrimidin-5-yl)oxy]methyl}-N-(5-fluoro-4-methylpyridin-2-yl)-2-(3-fluorophenyl)cyclopropanecarboxamide] | – | – | 3 | 5.3
Cc1ncc(OC[C@@]2(c3ccccc3)C[C@H]2C(=O)Nc2cc(F)cc(C#N)c2)c(C)n1 [Example 34] | 430 | 18 | – | –
CCc1nc(C)ncc1OC[C@@]1(c2cccc(F)c2)C[C@H]1C(=O)Nc1ccc(F)cc1 [Example 316, (1R,2S)-2-{[(4-ethyl-2-methylpyrimidin-5-yl)oxy]methyl}-2-(3-fluorophenyl)-N-(4-fluorophenyl)cyclopropanecarboxamide] | – | – | 7 | 1.1
COCc1cccc(NC(=O)[C@@H]2C[C@@]2(COc2cnc(C)nc2C)c2ccccc2)c1 [Example 42] | 374 | 12 | – | –
Cc1ncc(OC[C@@]2(c3cccc(F)c3)C[C@H]2c2nc3ccccc3c(=O)[nH]2)c(C)n1 [Example 310] | – | – | 40 | 13
Cc1ncc(OC[C@@]2(c3ccccc3)C[C@H]2C(=O)Nc2cc(F)cc(F)c2)c(C)n1 [Example 31] | – | – | 222 | 26
CCc1nc(C)ncc1OC[C@@]1(c2ccc(F)cc2)C[C@H]1C(=O)Nc1ccc(F)cn1 [Example 246, (1R,2S)-2-{[(4-ethyl-2-methylpyrimidin-5-yl)oxy]methyl}-2-(4-fluorophenyl)-N-(5-fluoropyridin-2-yl)cyclopropanecarboxamide] | 16 | 4 | – | –
Cc1ncc(OC[C@@]2(c3cc(F)cc(F)c3)C[C@H]2c2nc3ncc(F)cc3[nH]2)c(C)n1 [Example 306, 2-{(1R,2S)-2-(3,5-difluorophenyl)-2-{[(2,4-dimethylpyrimidin-5-yl)oxy]methyl}cyclopropyl}-6-fluoro-1H-imidazo[4,5-b]pyridine] | – | – | 15 | 8
Cc1ncc(OC[C@@]2(c3cccc(F)c3)C[C@H]2C(=O)Nc2cnc(F)c(C)c2)c(C)n1 [Example 91] | 215 | 22 | – | –
Cc1ncc(OC[C@@]2(c3cc(F)cc(F)c3)C[C@H]2C(=O)Nc2ccc(C#N)cn2)c(C)n1 [Example 137, (1R,2S)-N-(5-cyanopyridin-2-yl)-2-(3,5-difluorophenyl)-2-{[(2,4-dimethylpyrimidin-5-yl)oxy]methyl}cyclopropanecarboxamide] | 97 | 4 | – | –
COCc1nc(C)ncc1OC[C@@]1(c2cc(F)cc(OC)c2)C[C@H]1C(=O)Nc1ccc(F)c(F)c1 [Example 232, (1R,2S)-N-(3,4-difluorophenyl)-2-(3-fluoro-5-methoxyphenyl)-2-{[(4-methoxymethyl-2-methylpyrimidin-5-yl)oxy]methyl}cyclopropanecarboxamide] | – | – | 1 | 3
CCc1nc(C)ncc1OC[C@@]1(c2ccc(F)cc2)C[C@H]1C(=O)Nc1cc(Cl)ccn1 [Example 247, (1R,2S)-N-(4-chloropyridin-2-yl)-2-{[(4-ethyl-2-methylpyrimidin-5-yl)oxy]methyl}-2-(4-fluorophenyl)cyclopropanecarboxamide] | – | – | 22 | 3
COCc1nc(C)ncc1OC[C@@]1(c2cc(F)cc(OC)c2)C[C@H]1C(=O)Nc1cccc(F)c1 [Example 236, (1R,2S)-2-(3-fluoro-5-methoxyphenyl)-N-(3-fluorophenyl)-2-{[(4-methoxymethyl-2-methylpyrimidin-5-yl)oxy]methyl}cyclopropanecarboxamide] | 21 | 5 | – | –
